Columns and labels:
Mus musculus [1] = experiment: Anti-inflammatory activity in mouse model of xylene-induced ear edema assessed as inhibition of ear edema at 100 mg/kg, ip pre-treated before xylene injection and measured 1 hr post xylene injection relative to untreated control; assay type: functional
Mus musculus [2] = experiment: Analgesic activity in mouse at 100 mg/kg, ip measured after 60 mins at 58 degC by hot plate method; assay type: functional
Mus musculus [3] = experiment: Anti-inflammatory activity in mouse model of xylene-induced ear edema assessed as inhibition of ear edema at 10 to 30 mg/kg, ip pre-treated before xylene injection and measured 1 hr post xylene injection relative to untreated control; assay type: functional, organism-based
Mus musculus [4] = experiment: Anti-inflammatory activity in mouse model of xylene-induced ear edema assessed as inhibition of ear edema at 10 mg/kg, ip pre-treated before xylene injection and measured 1 hr post xylene injection relative to untreated control; assay type: functional
Mus musculus [5] = experiment: Analgesic activity in mouse at 10 mg/kg, ip measured after 60 mins at 58 degC by hot plate method; assay type: functional
Mus musculus [6] = experiment: Anti-inflammatory activity in mouse model of xylene-induced ear edema assessed as inhibition of ear edema at 20 mg/kg, ip pre-treated before xylene injection and measured 1 hr post xylene injection relative to untreated control; assay type: functional
Mus musculus [7] = experiment: Anti-inflammatory activity in mouse model of xylene-induced ear edema assessed as inhibition of ear edema at 30 mg/kg, ip pre-treated before xylene injection and measured 1 hr post xylene injection relative to untreated control; assay type: functional
Mus musculus [8] = experiment: Analgesic activity in mouse at 20 mg/kg, ip measured after 60 mins at 58 degC by hot plate method; assay type: functional
Mus musculus [9] = experiment: Analgesic activity in mouse at 30 mg/kg, ip measured after 60 mins at 58 degC by hot plate method; assay type: functional
[10] = target: T1, Prostaglandin G/H synthase 1 (Ovis aries, UniProt P05979); experiment: Inhibition of ovine COX1
T1 sequence (P05979 whole entry): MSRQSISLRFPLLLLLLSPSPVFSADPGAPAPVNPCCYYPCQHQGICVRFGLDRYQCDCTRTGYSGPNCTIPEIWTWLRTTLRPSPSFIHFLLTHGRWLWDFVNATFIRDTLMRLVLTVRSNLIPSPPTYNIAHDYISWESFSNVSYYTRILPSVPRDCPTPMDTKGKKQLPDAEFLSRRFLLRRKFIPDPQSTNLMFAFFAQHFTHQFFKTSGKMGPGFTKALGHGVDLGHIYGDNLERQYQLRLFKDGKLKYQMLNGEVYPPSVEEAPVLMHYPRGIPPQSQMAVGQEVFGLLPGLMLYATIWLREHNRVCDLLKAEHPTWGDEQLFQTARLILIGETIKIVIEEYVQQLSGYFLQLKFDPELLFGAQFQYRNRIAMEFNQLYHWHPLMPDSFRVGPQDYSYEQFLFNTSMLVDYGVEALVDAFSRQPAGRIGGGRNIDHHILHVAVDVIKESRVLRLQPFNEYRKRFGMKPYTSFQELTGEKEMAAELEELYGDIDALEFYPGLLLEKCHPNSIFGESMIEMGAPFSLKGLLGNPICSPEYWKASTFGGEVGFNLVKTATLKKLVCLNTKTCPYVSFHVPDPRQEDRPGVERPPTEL

Row | Compound | inhibition in vivo at 100 mg/kg (Mus musculus [1]) [%] | Activity (Mus musculus [2]) [%] | inhibition (Mus musculus [3]) | inhibition in vivo at 10 mg/kg (Mus musculus [4]) [%] | Activity (Mus musculus [5]) [%] | inhibition in vivo at 20 mg/kg (Mus musculus [6]) [%] | inhibition in vivo at 30 mg/kg (Mus musculus [7]) [%] | Activity (Mus musculus [8]) [%] | Activity (Mus musculus [9]) [%] | IC50 [10] [µM]
1 | Cc1cccc(NC(=O)N2CCc3ccccc3[C@@H]2c2ccccc2)c1 | 86.4 | 99.2 | – | – | – | – | – | – | – | –
2 | O=C(Nc1c(Cl)cccc1Cl)N1CCc2ccccc2[C@@H]1c1ccccc1 | 92.7 | 100 | Dose-dependent effect | – | – | – | – | – | – | –
3 | O=C(Nc1cccc(F)c1)N1CCc2ccccc2[C@@H]1c1ccccc1 | 84.9 | 89.8 | – | – | – | – | – | – | – | –
4 | O=C(N(c1ccccc1)c1ccccc1)N1CCc2ccccc2[C@@H]1c1ccccc1 | 86.3 | 73.3 | – | – | – | – | – | – | – | –
5 | O=C(Nc1cccc(Cl)c1)N1CCc2ccccc2[C@@H]1c1ccccc1 | 88 | 100 | – | – | – | – | – | – | – | –
6 | O=C(NCc1ccccc1)N1CCc2ccccc2[C@@H]1c1ccccc1 | 77.4 | 96.3 | – | – | – | – | – | – | – | –
7 | COc1ccc2c(c1)c(CC(=O)O)c(C)n2C(=O)c1ccc(Cl)cc1 [INDOMETHACIN] | – | 98.6 | – | 51 to 90.4 | 73.7 | – | – | – | – | –
8 | O=C(Nc1ccccc1)N1CCc2ccccc2[C@@H]1c1ccccc1 | 95 | 100 | Dose-dependent effect | 60.3 | 69.6 | 69.5 | 74.7 | 76.4 | 87.2 | 5.42
9 | COc1cccc(NC(=O)N2CCc3ccccc3[C@@H]2c2ccccc2)c1 | 85.9 | 94.6 | – | – | – | – | – | – | – | –
10 | O=C(Nc1cccc(Br)c1)N1CCc2ccccc2[C@@H]1c1ccccc1 | 83.1 | 89.8 | – | 44.2 | 58.7 | 51.7 | 61.2 | 63.7 | 80.2 | 7.85

— ChEMBL document CHEMBL4033746, “Synthesis, potential anti-inflammatory and analgesic activities study of (S)-N-substituted-1-phenyl-3,4-dihydroisoquinoline-2(1H)-carboxamides” (Bioorg Med Chem Lett, 2017)
